Biological target: C. jejuni response regulator CosR (Campylobacter jejuni, UniProt Q0PBF4)
Experiment: EMSA: inhibition of in vitro DNA binding activity of CosR to promoter PsodB
Type: biochemical
Settings: 700 nM CosR, ligand 0.1-2 mM
Procedure: The DNA binding activities of recombinant HsrA and CosR were assessed in vitro by electrophoretic mobility shift assays (EMSAs). A 300-bp promoter region of the H. pylori 26695 operon porGDAB was used as the target sequence of HsrA in all EMSA experiments. Likewise, a 420-bp sequence of the C. jejuni sodB promoter (ATCC 33560) was used as the target DNA of CosR [90]. The oligonucleotides used for the synthesis of these promoter regions are described in Supplementary Table S4. Response regulators HsrA (6 μM) or CosR (700 nM) were mixed with 120 ng of their target promoters in a reaction buffer of 10 mM bis-Tris (pH 7.5), 40 mM KCl, 100 mg/L BSA, 1 mM DTT, and 5% glycerol. For the in vitro inhibition analyses, mixtures of target DNA and response regulator were exposed to 2, 1, 0.5, and 0.1 mM of each compound of interest, incubated at room temperature for 20 min, and then separated on a 6% non-denaturing electrophoresis. DMSO instead of inhibitors was included as a vehicle control, while an internal sequence of the Anabaena sp. pkn22 gene was used as the non-specific competitor in all assays. For DNA-protein binding visualization, gels were stained with the SYBR Safe DNA gel stain (Invitrogen) and analyzed with a Gel Doc 2000 Image Analyzer (Bio-Rad).

Chain of C. jejuni response regulator CosR (Q0PBF4 entry or part of it): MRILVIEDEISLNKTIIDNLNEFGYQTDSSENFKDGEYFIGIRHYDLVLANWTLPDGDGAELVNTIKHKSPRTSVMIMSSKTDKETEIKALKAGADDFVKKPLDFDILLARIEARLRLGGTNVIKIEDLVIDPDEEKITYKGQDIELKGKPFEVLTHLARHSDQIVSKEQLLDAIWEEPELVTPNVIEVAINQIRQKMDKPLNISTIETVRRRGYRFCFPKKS

Question: With NC(=NOC(=O)Nc1ccc(Cl)cc1)c1csc([N+](=O)[O-])c1 [Ligand V, N′-{[(4-chloroanilino)carbonyl]}oxy-5-nitrothiophene-3-carboximidamide] as the compound, how does the “Inhibition of in vitro DNA binding activity of CosR (EMSA)” value read?
Answer: noticeable inhibition

Source: article PMC11432330, “Novel Drug-like HsrA Inhibitors Exhibit Potent Narrow-Spectrum Antimicrobial Activities against Helicobacter pylori” (International Journal of Molecular Sciences, 2024)
